Experimental data as given in US20080319042A1, “Compositions and methods for treatment of liver disease” (priority 2007, published 2008).
≈ marks a conversion by molar mass, not a printed value. Where “and” joins values, the source holds several entries; their conditions need not be identical. Equal entries are not always repeated.

Key:
[1] = tested on: hepatitis B surface antigen (HBsAg) production; assay: Anti-HBSAg Assay (Procedure A); format: cell-based, hepatitis B virus; details: 50 μg/ml
Experimental: (§1) The HBV-producing human hepatoblastoma cell line, Hep G2.2.15 was maintained in DMEM supplemented with 10% fetal bovine serum (FBS), 2 mM glutamine, 100 units/ml penicillin, 100 μg/ml streptomycin and 380 μg/ml gentamicin sulfate (G418) at 37° C. under 5% CO2 in air. The Hep G2 parental cells were grown under identical conditions in MEM with Earle's salts without G418.
(§2) Hep G2.2.15 cells (190 μl) were seeded onto microtiter plates at a concentration of 20×10^4 cells/ml. The cells incubated overnight in medium without G418 after which the compound compositions (10 μl) were added. Five 2-fold serial dilutions of extracts or fractions were tested starting at 200 μg/ml final culture concentration. PBS and 3TC (lamivudine) were included as the negative and positive controls, respectively. The treated cells were incubated at 37° C. for 4 days, after which the hepatitis B surface antigen (HBsAg) production in culture supernatants was assayed. The HBsAg released into the culture medium in the presence or absence of test samples was assayed using the BIO-RAD Genetic Systems HBsAg EIA 3.0 kit (Bio-Rad, Redmond, Wash.). This enzyme immunoassay is based on the capture of HBsAg on monoclonal antibody-coated plates. Four- and twelve-fold dilutions of all culture supernatants collected were assayed in triplicate wells of the EIA plate. The percentage inhibition of HBsAg secretion in the presence of the plant samples was calculated against the negative control (PBS).

[2] = tested on: HBsAg; assay: Anti-HBSAg Assay (Procedure B), HBsAg; format: cell-based, hepatitis B virus; set-up: HBsAg Ave.: unit not given here
Experimental: The HBV-producing human hepatoblastoma cell line, Hep G2 2.2.15 is maintained in DMEM supplemented with 10% fetal bovine serum (FBS), 2 mM glutamine, 100 units/ml penicillin, 100 μg/ml streptomycin at 37° C. under 5% CO2 in air.
Samples were dissolved in DMSO at the concentration of 20 mg/mL, then further diluted with DMEM medium to the appropriate concentration.
Hep G2 2.2.15 cells (120 μl) were seeded onto 96-well plates at a concentration of 2×10^5 cells/mL. The cells incubated for 72 h in the medium without G418, after which the test samples (120 μl) were added. Five 3-fold serial dilutions of samples were tested. PBS and 3TC (lamivudine) were included as the negative and positive controls, respectively. The treated cells were incubated at 37° C. for 9 days; with the medium with sample being changed each 3 days, after which the culture supernatant was removed for analysis of both the hepatitis B surface antigen (HBsAg) production and hepatitis B DNA expression.
The HBsAg released into the culture medium in the presence or absence of test material was assayed using the kit manufactured by Shanghai Siic Kehua Biotech Co., Ltd (Shanghai, China). This enzyme immunoassay is based on the capture of HBsAg on monoclonal antibody-coated plates. Four- and twelve-fold dilutions of all culture supernatants collected were assayed in triplicate wells of the kit plate. The percentage inhibition of HBsAg secretion in the presence of the compound was calculated against the negative control (PBS). The IC50 values, the dose that inhibited viruses by 50%, were calculated using non-linear regression analysis (percent survival versus concentration).

[3] = tested on: HBeAg; assay: Anti-HBSAg Assay (Procedure B), HBeAg; format: cell-based, hepatitis B virus; set-up: HBeAg Ave: unit not given here
[4] = tested on: HBV DNA; assay: Anti-HBV DNA Assay; format: cell-based, hepatitis B virus; details: for HBV DNA copies/ml: replicates, listed as HP-S3
[5] = tested on: HCV/HIV pseudovirions; assay: microbe, parasite or virus in culture; format: cell-based, hepatitis C virus
[6] = tested on: HCV JFH1; assay: HCV JFH1 infectivity assay (JFH1 Foci Reduction Assay); format: cell-based, hepatitis C virus; details: virus preincubated with compound, Huh 7 cells, 48 hr post infection, RD8, RD16, RD17, RD18 as glucosidase hydrolysis products
[7] = tested on: Hep G2.2.15 cells; assay: % Cell Viability in Anti-HBSAg Assay (Procedure A); format: cell-based, human; details: 50 μg/ml
Experimental: as §1, §2

In the case of OCC1=C[C@@H](O)[C@@H]2C=CO[C@@H](O[C@@H]3O[C@H](CO)[C@@H](O)[C@H](O)[C@H]3O)[C@H]12 [aucubin], the “% Control HBSAg” value [1] is reported as 100%, the “% Inhibition” value [1] is reported as 0% and the “HBsAg Ave.” value ([2]; 12.5 μg/mL) is reported as 1.232. For the same compound, the “HBsAg Inhibition %” value ([2]; 12.5 μg/mL) was 0%, the “HBsAg OD1” value ([2]; 12.5 μg/mL) was 1.196 and the “HBsAg OD2” value ([2]; 12.5 μg/mL) was 1.261. For the same compound, the “HBsAg OD3” value ([2]; 12.5 μg/mL) was 1.238, the “HBsAg Ave.” value ([2]; 25 μg/mL) was 1.309 and the “HBsAg Inhibition %” value ([2]; 25 μg/mL) was 0%. The “HBsAg OD1” value ([2]; 25 μg/mL) was 1.242, the “HBsAg OD2” value ([2]; 25 μg/mL) was 1.384 and the “HBsAg OD3” value ([2]; 25 μg/mL) was 1.302. For the same compound, the “HBsAg Ave.” value ([2]; 50 μg/mL) was 1.272, the “HBsAg Inhibition %” value ([2]; 50 μg/mL) was 0% and the “HBsAg OD1” value ([2]; 50 μg/mL) was 1.218. The “HBsAg OD2” value ([2]; 50 μg/mL) was 1.375, the “HBsAg OD3” value ([2]; 50 μg/mL) was 1.222 and the “HBsAg Ave.” value ([2]; 100 μg/mL) was 1.292. The “HBsAg Inhibition %” value ([2]; 100 μg/mL) was 0%, the “HBsAg OD1” value ([2]; 100 μg/mL) was 1.276 and the “HBsAg OD2” value ([2]; 100 μg/mL) was 1.353. The “HBsAg OD3” value ([2]; 100 μg/mL) was 1.246, the “HBsAg Ave.” value ([2]; 200 μg/mL) was 1.541 and the “HBsAg Inhibition %” value ([2]; 200 μg/mL) was 0%. For the same compound, the “HBsAg OD1” value ([2]; 200 μg/mL) was 1.546, the “HBsAg OD2” value ([2]; 200 μg/mL) was 1.616 and the “HBsAg OD3” value ([2]; 200 μg/mL) was 1.46. For the same compound, the “HBeAg Ave” value ([3]; 12.5 μg/mL) was 1.378, the “HBeAg Inhibition %” value ([3]; 12.5 μg/mL) was 0% and the “HBeAg OD1” value ([3]; 12.5 μg/mL) was 1.397. For the same compound, the “HBeAg OD2” value ([3]; 12.5 μg/mL) was 1.419, the “HBeAg OD3” value ([3]; 12.5 μg/mL) was 1.318 and the “HBeAg Ave” value ([3]; 25 μg/mL) was 1.364. For the same compound, the “HBeAg Inhibition %” value ([3]; 25 μg/mL) was 0%, the “HBeAg OD1” value ([3]; 25 μg/mL) was 1.332 and the “HBeAg OD2” value ([3]; 25 μg/mL) was 1.369. For the same compound, the “HBeAg OD3” value ([3]; 25 μg/mL) was 1.390, the “HBeAg Ave” value ([3]; 50 μg/mL) was 1.383 and the “HBeAg Inhibition %” value ([3]; 50 μg/mL) was 0%. The “HBeAg OD1” value ([3]; 50 μg/mL) was 1.357, the “HBeAg OD2” value ([3]; 50 μg/mL) was 1.437 and the “HBeAg OD3” value ([3]; 50 μg/mL) was 1.354. For the same compound, the “HBeAg Ave” value ([3]; 100 μg/mL) was 1.616, the “HBeAg Inhibition %” value ([3]; 100 μg/mL) was 0% and the “HBeAg OD1” value ([3]; 100 μg/mL) was 1.707. The “HBeAg OD2” value ([3]; 100 μg/mL) was 1.479, the “HBeAg OD3” value ([3]; 100 μg/mL) was 1.662 and the “HBeAg Ave” value ([3]; 200 μg/mL) was 1.357. The “HBeAg Inhibition %” value ([3]; 200 μg/mL) was 0%, the “HBeAg OD1” value ([3]; 200 μg/mL) was 1.350 and the “HBeAg OD2” value ([3]; 200 μg/mL) was 1.305. For the same compound, the “HBeAg OD3” value ([3]; 200 μg/mL) was 1.415, the “HBV DNA Average” value ([4]; 12.5 μg/ml) was 1.06 × 10^6 copies/ml and the “HBV DNA Inhibit” value ([4]; 12.5 μg/ml) was 9.40%. For the same compound, the “HBV DNA copies/ml” value ([4]; 12.5 μg/ml) was 1.03E+06 copies/ml and 9.68E+05 copies/ml and 1.18E+06 copies/ml, the “HBV DNA Average” value ([4]; 25 μg/ml) was 1.03 × 10^5 copies/ml and the “HBV DNA Inhibit” value ([4]; 25 μg/ml) was 1.35%. The “HBV DNA copies/ml” value ([4]; 25 μg/ml) was 9.52E+05 copies/ml and 1.07E+06 copies/ml and 1.04E+06 copies/ml, the “HBV DNA Average” value ([4]; 50 μg/ml) was 1.28 × 10^6 copies/ml and the “HBV DNA Inhibit” value ([4]; 50 μg/ml) was 0.00%. For the same compound, the “HBV DNA copies/ml” value ([4]; 50 μg/ml) was 1.22E+06 copies/ml and 1.27E+06 copies/ml and 1.35E+06 copies/ml, the “HBV DNA Average” value ([4]; 100 μg/ml) was 1.32 × 10^6 copies/ml and the “HBV DNA Inhibit” value ([4]; 100 μg/ml) was 0.00%. For the same compound, the “HBV DNA copies/ml” value ([4]; 100 μg/ml) was 1.17E+06 copies/ml and 1.15E+06 copies/ml and 1.65E+06 copies/ml, the “HBV DNA Average” value ([4]; 200 μg/ml) was 1.20 × 10^6 copies/ml and the “HBV DNA Inhibit” value ([4]; 200 μg/ml) was 0.00%. For the same compound, the “HBV DNA copies/ml” value ([4]; 200 μg/ml) was 1.38E+06 copies/ml and 9.71E+05 copies/ml and 1.24E+06 copies/ml and the “inhibition of HCV/HIV entry” value ([5]; 100 μg/mL, FIG. 1) was “inactive”.

With O=C(C=Cc1ccc(O)cc1)OCC1=CC(O)C2C=COC(O)C12 (mixture of isomers) [RD-18] the “HCV Inhibition at 20 μg/mL” value ([5]; Enzyme Hydrolysis Processing Time 0.5 hours) was 46.6, the “HCV Inhibition at 20 μg/mL” value ([5]; Enzyme Hydrolysis Processing Time 4.0 hours) was 56.6 and the “Estimated IC50 (inhibition of HCV JFH1 infectivity)” value [6] was 26 µg/mL.

COC(=O)C1=CO[C@@H](O)[C@@H]2C(CO)=CC[C@H]12 [RD-4] was tested, and the inhibition at 20 µg/mL ([5]; Hepatitis C virus, Huh-7, read-out: HCV Inhibition at 20 μg/mL) was 73.2% and the IC50 ([6]; Hepatitis C virus, read-out: Estimated IC50 (inhibition of HCV JFH1 infectivity)) was 22 µg/mL (≈ 97.2 µM).

OCC1=CC(O)C2C=COC(O)C12 (mixture of isomers) [aucubin enzyme hydrolysate, reference compound] was tested, and the “% Control HBSAg” value [1] was 96%, the “% Inhibition” value [1] was 4% and the “% Cell Viability” value [7] was 100%.
